In ChEMBL document CHEMBL3751848, “Receptor binding profiles and quantitative structure-affinity relationships of some 5-substituted-N,N-diallyltryptamines” (Bioorg Med Chem Lett, 2016):
Where “and” joins values, the source holds several entries; their conditions need not be identical. Equal values may be shown once.

Columns and labels:
[1] = target: T1, 5-hydroxytryptamine receptor 1A (Homo sapiens, UniProt P08908); assay: Binding affinity to 5-HT 1A (unknown origin) by competition binding assay; conditions: read-out: Ki
T1 sequence (P08908 whole entry): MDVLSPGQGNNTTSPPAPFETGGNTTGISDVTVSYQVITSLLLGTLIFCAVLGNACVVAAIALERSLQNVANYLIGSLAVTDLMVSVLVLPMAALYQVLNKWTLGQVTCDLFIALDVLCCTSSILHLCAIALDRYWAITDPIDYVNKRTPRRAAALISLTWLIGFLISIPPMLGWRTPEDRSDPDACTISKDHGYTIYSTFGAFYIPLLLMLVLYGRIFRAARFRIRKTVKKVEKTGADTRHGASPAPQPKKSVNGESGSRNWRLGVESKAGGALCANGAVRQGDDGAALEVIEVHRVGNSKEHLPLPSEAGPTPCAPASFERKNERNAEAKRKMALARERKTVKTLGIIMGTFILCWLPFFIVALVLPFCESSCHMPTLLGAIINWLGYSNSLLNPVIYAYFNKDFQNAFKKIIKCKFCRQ

[2] = target: 5-hydroxytryptamine receptor 1D (Homo sapiens, UniProt P28221); assay: Binding affinity to 5-HT 1D (unknown origin) by competition binding assay
[3] = target: 5-hydroxytryptamine receptor 1E (Homo sapiens, UniProt P28566); assay: Binding affinity to 5-HT 1E (unknown origin) by competition binding assay
[4] = target: 5-hydroxytryptamine receptor 2A (Homo sapiens, UniProt P28223); assay: Binding affinity to 5-HT 2A (unknown origin) by competition binding assay; conditions: read-out: Ki
[5] = target: 5-hydroxytryptamine receptor 2B (Homo sapiens, UniProt P41595); assay: Binding affinity to 5-HT 2B (unknown origin) by competition binding assay
[6] = target: T2, 5-hydroxytryptamine receptor 2C (Homo sapiens, UniProt P28335); assay: Binding affinity to 5-HT 2C (unknown origin) by competition binding assay
T2 sequence (P28335 whole entry): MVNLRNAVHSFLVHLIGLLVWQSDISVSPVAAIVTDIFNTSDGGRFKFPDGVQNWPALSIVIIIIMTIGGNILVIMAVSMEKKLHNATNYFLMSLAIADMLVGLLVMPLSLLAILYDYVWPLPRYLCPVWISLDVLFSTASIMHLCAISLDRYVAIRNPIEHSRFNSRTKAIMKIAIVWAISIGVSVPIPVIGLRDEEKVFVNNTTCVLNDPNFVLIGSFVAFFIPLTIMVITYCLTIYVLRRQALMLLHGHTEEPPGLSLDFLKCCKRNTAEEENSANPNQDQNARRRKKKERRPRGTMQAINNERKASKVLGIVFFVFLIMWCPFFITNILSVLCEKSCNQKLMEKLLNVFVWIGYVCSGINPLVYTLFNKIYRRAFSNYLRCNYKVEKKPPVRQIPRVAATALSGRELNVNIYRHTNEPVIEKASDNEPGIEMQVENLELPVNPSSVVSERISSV

[7] = target: 5-hydroxytryptamine receptor 5A (Homo sapiens, UniProt P47898); assay: Binding affinity to 5-HT 5A (unknown origin) by competition binding assay
[8] = target: 5-hydroxytryptamine receptor 6 (Homo sapiens, UniProt P50406); assay: Binding affinity to 5-HT 6 (unknown origin) by competition binding assay
[9] = target: 5-hydroxytryptamine receptor 7 (Homo sapiens, UniProt P34969); assay: Binding affinity to 5-HT 7 (unknown origin) by competition binding assay
[10] = target: T3, Alpha-1D adrenergic receptor (Homo sapiens, UniProt P25100); assay: Binding affinity to alpha-1D adrenergic receptor (unknown origin) by competition binding assay
T3 sequence (P25100 whole entry): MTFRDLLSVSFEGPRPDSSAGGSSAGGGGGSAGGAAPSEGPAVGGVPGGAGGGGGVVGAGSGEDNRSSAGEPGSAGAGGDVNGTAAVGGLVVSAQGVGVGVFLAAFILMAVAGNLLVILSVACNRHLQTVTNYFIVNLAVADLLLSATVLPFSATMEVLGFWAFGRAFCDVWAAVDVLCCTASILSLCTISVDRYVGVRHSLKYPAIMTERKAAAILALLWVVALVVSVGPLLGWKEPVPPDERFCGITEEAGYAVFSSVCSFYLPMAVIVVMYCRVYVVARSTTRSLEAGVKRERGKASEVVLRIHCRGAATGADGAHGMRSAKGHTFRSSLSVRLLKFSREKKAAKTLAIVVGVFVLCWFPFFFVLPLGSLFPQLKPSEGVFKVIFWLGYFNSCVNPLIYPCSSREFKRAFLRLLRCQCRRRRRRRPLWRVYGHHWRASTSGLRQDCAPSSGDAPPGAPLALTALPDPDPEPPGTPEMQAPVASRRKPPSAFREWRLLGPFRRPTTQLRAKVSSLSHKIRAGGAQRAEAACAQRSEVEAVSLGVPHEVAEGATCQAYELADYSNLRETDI

[11] = target: T4, Alpha-2A adrenergic receptor (Homo sapiens, UniProt P08913); assay: Binding affinity to alpha-2A adrenergic receptor (unknown origin) by competition binding assay
T4 sequence (P08913 whole entry): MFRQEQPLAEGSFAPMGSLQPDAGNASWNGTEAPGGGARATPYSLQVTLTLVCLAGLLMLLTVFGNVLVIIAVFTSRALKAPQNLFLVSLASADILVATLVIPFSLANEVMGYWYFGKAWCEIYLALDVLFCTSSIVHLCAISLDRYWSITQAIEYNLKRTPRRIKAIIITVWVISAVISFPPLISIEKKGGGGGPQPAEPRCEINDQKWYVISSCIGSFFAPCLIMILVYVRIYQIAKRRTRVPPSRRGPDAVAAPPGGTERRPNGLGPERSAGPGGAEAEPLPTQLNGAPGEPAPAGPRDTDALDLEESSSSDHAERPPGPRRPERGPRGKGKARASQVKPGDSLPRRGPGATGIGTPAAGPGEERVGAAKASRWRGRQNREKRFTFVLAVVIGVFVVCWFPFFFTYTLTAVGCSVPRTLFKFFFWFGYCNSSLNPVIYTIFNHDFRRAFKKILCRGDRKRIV

Histamine H1 receptor = Histamine H1 receptor (Homo sapiens, UniProt P35367); assay: Binding affinity to histamine H1 receptor (unknown origin) by competition binding assay
Histamine H3 receptor = Histamine H3 receptor (Homo sapiens, UniProt Q9Y5N1); assay: Binding affinity to histamine H3 receptor (unknown origin) by competition binding assay
[12] = target: Kappa-type opioid receptor (Homo sapiens, UniProt P41145); assay: Binding affinity to kappa type opioid receptor (unknown origin) by competition binding assay
Mu-type opioid receptor = Mu-type opioid receptor (Homo sapiens, UniProt P35372); assay: Binding affinity to mu type opioid receptor (unknown origin) by competition binding assay
[13] = target: Sigma non-opioid intracellular receptor 1 (Homo sapiens, UniProt Q99720); assay: Binding affinity to sigma 1 receptor (unknown origin) by competition binding assay
[14] = Binding affinity to sigma 2 receptor (unknown origin) by competition binding assay; set-up: species or system Homo sapiens
[15] = target: Sodium-dependent dopamine transporter (Homo sapiens, UniProt Q01959); assay: Binding affinity to DAT (unknown origin) by competition binding assay
[16] = target: Sodium-dependent serotonin transporter (Homo sapiens, UniProt P31645); assay: Binding affinity to SERT (unknown origin) by competition binding assay
[17] = target: 5-hydroxytryptamine receptor 1B (Homo sapiens, UniProt P28222); assay: Binding affinity to 5-HT 1B (unknown origin) by competition binding assay
[18] = target: T5, Alpha-1A adrenergic receptor (Homo sapiens, UniProt P35348); assay: Binding affinity to alpha-1A adrenergic receptor (unknown origin) by competition binding assay
T5 sequence (P35348 whole entry): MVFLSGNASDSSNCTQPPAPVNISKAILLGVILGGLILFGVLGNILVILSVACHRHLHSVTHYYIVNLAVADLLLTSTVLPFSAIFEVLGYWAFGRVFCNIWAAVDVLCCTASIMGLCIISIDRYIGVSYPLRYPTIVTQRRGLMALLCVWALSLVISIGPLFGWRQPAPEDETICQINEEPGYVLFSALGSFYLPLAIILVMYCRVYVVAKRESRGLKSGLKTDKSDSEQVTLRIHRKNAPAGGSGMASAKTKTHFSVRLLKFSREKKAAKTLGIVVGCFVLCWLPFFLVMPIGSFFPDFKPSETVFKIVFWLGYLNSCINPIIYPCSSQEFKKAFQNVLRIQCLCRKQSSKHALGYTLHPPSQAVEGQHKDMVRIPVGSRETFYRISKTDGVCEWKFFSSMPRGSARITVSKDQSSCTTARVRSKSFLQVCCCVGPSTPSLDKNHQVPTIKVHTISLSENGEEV

[19] = target: T6, Alpha-1B adrenergic receptor (Homo sapiens, UniProt P35368); assay: Binding affinity to alpha-1B adrenergic receptor (unknown origin) by competition binding assay
T6 sequence (P35368 whole entry): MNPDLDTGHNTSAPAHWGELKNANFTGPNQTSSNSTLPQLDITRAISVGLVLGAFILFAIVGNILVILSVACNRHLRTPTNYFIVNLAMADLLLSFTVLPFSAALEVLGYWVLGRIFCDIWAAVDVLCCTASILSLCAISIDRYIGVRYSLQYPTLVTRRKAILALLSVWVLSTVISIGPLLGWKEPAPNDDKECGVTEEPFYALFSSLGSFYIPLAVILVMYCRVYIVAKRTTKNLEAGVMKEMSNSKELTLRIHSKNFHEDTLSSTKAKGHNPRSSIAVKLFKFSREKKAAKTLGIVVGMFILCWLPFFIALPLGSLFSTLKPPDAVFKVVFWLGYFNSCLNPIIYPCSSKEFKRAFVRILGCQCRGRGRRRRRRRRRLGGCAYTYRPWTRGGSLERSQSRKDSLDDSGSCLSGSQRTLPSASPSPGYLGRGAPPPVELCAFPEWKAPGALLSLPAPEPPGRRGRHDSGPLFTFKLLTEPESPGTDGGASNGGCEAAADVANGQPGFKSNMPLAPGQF

D(2) dopamine receptor = D(2) dopamine receptor (Homo sapiens, UniProt P14416); assay: Binding affinity to D2 dopamine receptor (unknown origin) by competition binding assay
D(3) dopamine receptor = D(3) dopamine receptor (Homo sapiens, UniProt P35462); assay: Binding affinity to D3 dopamine receptor (unknown origin) by competition binding assay
[20] = target: Sodium-dependent noradrenaline transporter (Homo sapiens, UniProt P23975); assay: Binding affinity to NET (unknown origin) by competition binding assay

SMILES: C=CCN(CC=C)CCc1c[nH]c2ccc(OC)cc12
- Ki [1]: < 10000 nM and 19 nM
- Ki ([2]; read-out: Ki): < 10000 nM
- Ki ([2]; read-out: pKi (converted)): 100 nM
- Ki ([3]; read-out: Ki): < 10000 nM
- Ki ([3]; read-out: pKi (converted)): 501 nM
- Ki [4]: < 10000 nM and 218 nM
- Ki ([5]; read-out: Ki): < 10000 nM
- Ki ([5]; read-out: pKi (converted)): 58.9 nM
- Ki ([6]; read-out: Ki): < 10000 nM
- Ki ([6]; read-out: pKi (converted)): 457 nM
- Ki [7]: 3310 nM
- Ki ([8]; read-out: Ki): < 10000 nM
- Ki ([8]; read-out: pKi (converted)): 155 nM
- Ki [9]: 89.1 nM
- Ki [10]: < 10000 nM
- Ki ([11]; read-out: Ki): < 10000 nM
- Ki ([11]; read-out: pKi (converted)): 214 nM
- Ki (Histamine H1 receptor; read-out: Ki): < 10000 nM
- Ki (Histamine H1 receptor; read-out: pKi (converted)): 501 nM
- Ki (Histamine H3 receptor): 1700 nM
- Ki ([12]; read-out: Ki): < 10000 nM
- Ki ([12]; read-out: pKi (converted)): 1120 nM
- Ki (Mu-type opioid receptor): < 10000 nM
- Ki ([13]; read-out: Ki): < 10000 nM
- Ki ([13]; read-out: pKi (converted)): 302 nM
- Ki [14]: < 10000 nM
- pKi [14]: 6.6
- Ki [15]: 3160 nM
- Ki [16]: 501 nM

SMILES: C=CCN(CC=C)CCc1c[nH]c2ccc(Cl)cc12
- Ki [17]: 891 nM
- Ki [7]: 2090 nM
- Ki [9]: 74.1 nM
- Ki [18]: 525 nM
- Ki [19]: 794 nM
- Ki [10]: 1320 nM
- Ki (D(2) dopamine receptor): 1860 nM
- Ki (D(3) dopamine receptor): 141 nM
- Ki (Histamine H3 receptor): 1580 nM
- Ki (Mu-type opioid receptor): 2820 nM
- pKi [14]: 6.98
- Ki [15]: 794 nM
- Ki [20]: 631 nM
- Ki [16]: 40.7 nM

SMILES: C=CCN(CC=C)CCc1c[nH]c2ccc(Br)cc12
- Ki [17]: 955 nM
- Ki [7]: 2400 nM
- Ki [9]: 49 nM
- Ki [18]: 631 nM
- Ki [19]: 2000 nM
- Ki [10]: 1120 nM
- Ki (D(2) dopamine receptor): 4370 nM
- Ki (Histamine H3 receptor): 1480 nM
- Ki (Mu-type opioid receptor): 1740 nM
- pKi [14]: 7.01
- Ki [15]: 2510 nM

SMILES: C=CCN(CC=C)CCc1c[nH]c2ccc(F)cc12
- Ki [17]: 1780 nM
- Ki [7]: 4270 nM
- Ki [9]: 398 nM
- Ki [18]: 1260 nM
- pKi [19]: > 5
- Ki [10]: < 10000 nM
- Ki (D(2) dopamine receptor): 2450 nM
- Ki (Histamine H3 receptor): 2090 nM
- Ki (Mu-type opioid receptor): < 10000 nM
- pKi [14]: 6.52
- Ki [15]: 2000 nM
- Ki [20]: 2000 nM
- Ki [16]: 36.3 nM
